Results on 1 compound are retold here after patent US8552002B2 (Novartis AG, priority 2004, dated 2013).

The target in assay [1] is T1, CSK (Homo sapiens, UniProt P41240).
T1 construct: purchased Upstate (KinaseProfiler panel)
In words: Upstate KinaseProfiler radio-enzymatic filter binding assay. The class given is biochemical. As to conditions: read-out: percentage inhibition of CSK. As for the experimental part: (§1) Compounds of the invention are assessed for their ability to inhibit individual members of a panel of kinases (a partial, non-limiting list of kinases includes: Abl, BCR-Abl, BMX, FGFR35, Lck, JNK1, JNK2, CSK, RAF, MKK6 and P38). The compounds are tested in duplicates at a final concentration of 10 μM following this generic protocol. Note that the kinase buffer composition and the substrates vary for the different kinases included in the “Upstate KinaseProfiler™” panel. Kinase buffer (2.5 μL, 10×—containing MnCl2 when required), active kinase (0.001-0.01 Units; 2.5 μL), specific or Poly(Glu4-Tyr) peptide (5-500 μM or 0.01 mg/ml) in kinase buffer and kinase buffer (50 μM; 5 μL) are mixed in an eppendorf on ice. A Mg/ATP mix (10 μL; 67.5 (or 33.75) mM MgCl2, 450 (or 225) μM ATP and 1 μCi/μl [γ-^32P]-ATP (3000 Ci/mmol)) is added and the reaction is incubated at about 30° C. for about 10 minutes. The reaction mixture is spotted (20 μL) onto a 2 cm×2 cm P81 (phosphocellulose, for positively charged peptide substrates) or Whatman No. 1 (for Poly (Glu4-Tyr) peptide substrate) paper square. The assay squares are washed 4 times, for 5 minutes each, with 0.75% phosphoric acid and washed once with acetone for 5 minutes. The assay squares are transferred to a scintillation vial, 5 ml scintillation cocktail are added and ^32P incorporation (cpm) to the peptide substrate is quantified with a Beckman scintillation counter. Percentage inhibition is calculated for each reaction.

Assay [2] has as its target T2, JNK2α2 (Homo sapiens, UniProt P45984).
T2 construct: purchased Upstate (KinaseProfiler panel)
The assay is described as above. As to conditions: read-out: percentage inhibition of JNK2α2. The class given is biochemical. The procedure:
as §1

For assay [3], the target named is T3, MKK6 (Homo sapiens, UniProt P52564).
T3 construct: purchased Upstate (KinaseProfiler panel)
T3 sequence (P52564 whole entry, species assumed): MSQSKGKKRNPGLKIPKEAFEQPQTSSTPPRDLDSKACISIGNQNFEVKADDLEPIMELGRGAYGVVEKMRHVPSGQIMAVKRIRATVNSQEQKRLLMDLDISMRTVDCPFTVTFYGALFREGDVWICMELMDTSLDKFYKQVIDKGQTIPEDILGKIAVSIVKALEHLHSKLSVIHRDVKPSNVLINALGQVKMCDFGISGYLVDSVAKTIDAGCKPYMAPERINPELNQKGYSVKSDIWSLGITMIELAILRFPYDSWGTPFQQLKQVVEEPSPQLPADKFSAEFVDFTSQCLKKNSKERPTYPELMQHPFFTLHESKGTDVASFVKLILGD
The description is as above. Particulars: read-out: percentage inhibition of MKK6. Format: biochemical. As for the experimental part:
as §1

In assay [4] the target is T4, ROS (Homo sapiens, UniProt P08922).
T4 construct: purchased Upstate (KinaseProfiler panel)
Described as above. The class given is biochemical. Particulars: read-out: percentage inhibition of ROS. The procedure: as §1

The target of assay [5] is T5, SAPK2α (Homo sapiens, UniProt Q16539).
T5 construct: purchased Upstate (KinaseProfiler panel)
T5 sequence (Q16539 whole entry): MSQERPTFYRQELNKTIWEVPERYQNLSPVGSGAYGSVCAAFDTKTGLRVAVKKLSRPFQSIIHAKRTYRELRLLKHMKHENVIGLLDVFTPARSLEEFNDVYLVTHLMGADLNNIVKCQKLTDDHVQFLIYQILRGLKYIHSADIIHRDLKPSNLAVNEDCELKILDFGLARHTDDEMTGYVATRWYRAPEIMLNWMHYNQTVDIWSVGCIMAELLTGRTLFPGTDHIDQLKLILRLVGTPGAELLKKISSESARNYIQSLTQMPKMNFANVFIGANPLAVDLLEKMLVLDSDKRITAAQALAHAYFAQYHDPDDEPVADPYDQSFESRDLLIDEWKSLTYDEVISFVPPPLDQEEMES
The assay is described as above. Format: biochemical. Particulars: read-out: percentage inhibition of SAPK2α. As for the experimental part:
as §1

Assay [6] deals with T6, SAPK2β (Homo sapiens, UniProt Q15759).
T6 construct: purchased Upstate (KinaseProfiler panel)
The description is as above. As to conditions: read-out: percentage inhibition of SAPK2β. The class given is biochemical. The procedure:
as §1

In assay [7] the target is T7, Tie2 (Homo sapiens, UniProt Q02763).
T7 construct: purchased Upstate (KinaseProfiler panel)
T7 sequence (Q02763 23-1124): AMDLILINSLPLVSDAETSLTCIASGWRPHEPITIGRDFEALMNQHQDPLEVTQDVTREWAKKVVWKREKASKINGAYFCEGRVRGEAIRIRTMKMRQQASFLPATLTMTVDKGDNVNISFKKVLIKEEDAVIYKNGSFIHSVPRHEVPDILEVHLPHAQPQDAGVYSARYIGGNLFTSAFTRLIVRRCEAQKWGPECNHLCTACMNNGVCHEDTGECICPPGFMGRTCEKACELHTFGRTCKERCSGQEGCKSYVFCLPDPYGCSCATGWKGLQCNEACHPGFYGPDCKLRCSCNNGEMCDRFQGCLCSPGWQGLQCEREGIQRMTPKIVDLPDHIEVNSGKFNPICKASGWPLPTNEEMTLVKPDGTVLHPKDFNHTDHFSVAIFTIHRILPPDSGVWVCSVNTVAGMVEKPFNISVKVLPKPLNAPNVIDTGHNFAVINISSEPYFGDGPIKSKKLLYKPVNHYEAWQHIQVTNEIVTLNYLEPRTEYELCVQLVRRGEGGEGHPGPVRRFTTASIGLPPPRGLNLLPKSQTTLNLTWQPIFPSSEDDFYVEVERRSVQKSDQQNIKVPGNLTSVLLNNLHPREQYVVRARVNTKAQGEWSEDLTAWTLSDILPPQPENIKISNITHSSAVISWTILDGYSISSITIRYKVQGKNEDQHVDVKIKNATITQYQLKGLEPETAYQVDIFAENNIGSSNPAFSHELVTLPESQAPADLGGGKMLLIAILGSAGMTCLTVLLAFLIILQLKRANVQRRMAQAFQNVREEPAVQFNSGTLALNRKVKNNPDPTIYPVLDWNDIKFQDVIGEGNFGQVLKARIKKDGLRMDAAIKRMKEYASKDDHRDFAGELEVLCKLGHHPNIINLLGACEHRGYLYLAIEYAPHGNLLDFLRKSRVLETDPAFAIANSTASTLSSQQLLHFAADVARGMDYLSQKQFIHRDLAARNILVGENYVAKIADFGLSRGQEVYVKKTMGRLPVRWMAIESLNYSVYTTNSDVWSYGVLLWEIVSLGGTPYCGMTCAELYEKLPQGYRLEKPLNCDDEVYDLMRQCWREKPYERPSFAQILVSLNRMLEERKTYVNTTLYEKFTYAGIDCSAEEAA
The assay is described as above. Format: biochemical. Particulars: read-out: percentage inhibition of Tie2. The procedure:
as §1

Assay [8] has as its target T8, TrkB (Homo sapiens, UniProt Q16620).
T8 construct: purchased Upstate (KinaseProfiler panel)
Described as above. The class given is biochemical. As to conditions: read-out: percentage inhibition of TrkB. As for the experimental part:
as §1

The target of assay [9] is T9, c-RAF (Homo sapiens, UniProt P04049).
T9 construct: purchased Upstate (KinaseProfiler panel)
The description is as above. The class given is biochemical. Particulars: read-out: percentage inhibition of c-RAF. The procedure: as §1

The target of assay [10] is T10, c-SRC (Homo sapiens, UniProt P12931).
T10 construct: purchased Upstate (KinaseProfiler panel)
The assay is described as above. The class given is biochemical. As to conditions: read-out: percentage inhibition of c-SRC. The procedure:
as §1

For assay [11], the target named is T11, lck (Homo sapiens, UniProt P06239).
T11 construct: purchased Upstate (KinaseProfiler panel)
T11 sequence (P06239 whole entry, species assumed): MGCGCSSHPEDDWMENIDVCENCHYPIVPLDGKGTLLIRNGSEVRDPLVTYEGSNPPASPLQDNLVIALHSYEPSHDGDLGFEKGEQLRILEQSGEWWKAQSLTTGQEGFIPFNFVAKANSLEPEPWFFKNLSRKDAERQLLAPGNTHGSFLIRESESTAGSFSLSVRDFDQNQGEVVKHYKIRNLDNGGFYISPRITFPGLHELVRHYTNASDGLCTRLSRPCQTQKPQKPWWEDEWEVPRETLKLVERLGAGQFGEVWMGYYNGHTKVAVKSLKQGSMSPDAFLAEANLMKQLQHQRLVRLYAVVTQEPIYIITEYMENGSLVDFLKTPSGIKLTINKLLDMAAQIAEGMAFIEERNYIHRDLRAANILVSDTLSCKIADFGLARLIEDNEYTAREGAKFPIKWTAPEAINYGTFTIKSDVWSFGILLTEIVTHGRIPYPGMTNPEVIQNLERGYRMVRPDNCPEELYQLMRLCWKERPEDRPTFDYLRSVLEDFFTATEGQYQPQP
The assay is described as above. The class given is biochemical. Particulars: read-out: percentage inhibition of lck. As for the experimental part: as §1

The target of assay [12] is T12, p70S6K (Homo sapiens, UniProt P23443).
T12 construct: purchased Upstate (KinaseProfiler panel)
T12 sequence (P23443 whole entry): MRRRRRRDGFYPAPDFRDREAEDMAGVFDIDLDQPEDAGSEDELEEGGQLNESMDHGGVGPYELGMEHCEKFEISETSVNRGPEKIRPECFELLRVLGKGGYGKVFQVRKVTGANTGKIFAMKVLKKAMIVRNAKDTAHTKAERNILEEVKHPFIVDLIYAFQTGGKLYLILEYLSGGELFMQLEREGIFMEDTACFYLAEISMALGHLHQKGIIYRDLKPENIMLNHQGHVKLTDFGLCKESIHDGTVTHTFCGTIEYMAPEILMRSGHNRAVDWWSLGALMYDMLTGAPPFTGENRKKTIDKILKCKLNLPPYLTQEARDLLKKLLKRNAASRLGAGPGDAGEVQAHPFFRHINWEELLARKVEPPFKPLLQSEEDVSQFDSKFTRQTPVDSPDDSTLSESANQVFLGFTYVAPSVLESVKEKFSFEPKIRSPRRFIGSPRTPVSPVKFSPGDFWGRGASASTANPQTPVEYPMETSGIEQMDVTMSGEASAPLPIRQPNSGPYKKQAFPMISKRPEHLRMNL
Described as above. The class given is biochemical. Particulars: read-out: percentage inhibition of p70S6K. The procedure:
as §1

Assay [13] has as its target T13, wild-type Abl (Homo sapiens, UniProt P00519).
T13 construct: purchased Upstate (KinaseProfiler panel)
Described as above. Particulars: read-out: percentage inhibition of wild-type Abl. The class given is biochemical. The procedure:
as §1

The target of assay [14] is FGFR35 (Homo sapiens, UniProt P22607). In words: FGFR35 (cellular assay), proliferation of Ba/F3-TEL-FGFR35 cells. Also on record: fused on or other part: N-terminal part of TEL (ETV6), which acts as the oligomerising partner; it is fused to the part of FGFR3 that carries the kinase; P41212 (Transcription factor ETV6). Format: cell-based. As to conditions: 48 hours, read-out: IC50 for the FGFR35 cellular assay. The procedure: Compounds of the invention are tested for their ability to inhibit transformed Ba/F3-TEL-FGFR35 cells proliferation, which is depended on FGFR35 cellular kinase activity. Ba/F3-TEL-FGFR35 are cultured up to 800,000 cells/mL in suspension, with RPMI 1640 supplemented with 10% fetal bovine serum as the culture medium. Cells are dispensed into 384-well format plate at 5000 cell/well in 50 μL culture medium. Compounds of the invention are dissolved and diluted in dimethylsulfoxide (DMSO). Twelve points 1:3 serial dilutions are made into DMSO to create concentrations gradient ranging typically from 10 mM to 0.05 μM. Cells are added with 50 nL of diluted compounds and incubated for 48 hours in cell culture incubator. AlamarBlue® (TREK Diagnostic Systems), which can be used to monitor the reducing environment created by proliferating cells, are added to cells at final concentration of 10%. After additional four hours of incubation in a 37° C. cell culture incubator, fluorescence signals from reduced AlamarBlue® (Excitation at 530 nm, Emission at 580 nm) are quantified on Analyst GT (Molecular Devices Corp.). IC50 values are calculated by linear regression analysis of the percentage inhibition of each compound at 12 concentrations.
Sequence of FGFR35 (P22607 472-761 limits assumed, change not shown): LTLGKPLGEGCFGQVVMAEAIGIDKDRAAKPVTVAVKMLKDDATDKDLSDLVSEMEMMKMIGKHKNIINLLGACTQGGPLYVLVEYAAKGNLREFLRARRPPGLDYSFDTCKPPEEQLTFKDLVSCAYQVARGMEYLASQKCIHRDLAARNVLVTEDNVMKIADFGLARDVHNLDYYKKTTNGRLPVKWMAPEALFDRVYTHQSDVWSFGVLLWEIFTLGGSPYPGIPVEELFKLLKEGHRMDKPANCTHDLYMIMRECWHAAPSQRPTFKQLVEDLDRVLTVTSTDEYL

T2 sequence (P45984 whole entry): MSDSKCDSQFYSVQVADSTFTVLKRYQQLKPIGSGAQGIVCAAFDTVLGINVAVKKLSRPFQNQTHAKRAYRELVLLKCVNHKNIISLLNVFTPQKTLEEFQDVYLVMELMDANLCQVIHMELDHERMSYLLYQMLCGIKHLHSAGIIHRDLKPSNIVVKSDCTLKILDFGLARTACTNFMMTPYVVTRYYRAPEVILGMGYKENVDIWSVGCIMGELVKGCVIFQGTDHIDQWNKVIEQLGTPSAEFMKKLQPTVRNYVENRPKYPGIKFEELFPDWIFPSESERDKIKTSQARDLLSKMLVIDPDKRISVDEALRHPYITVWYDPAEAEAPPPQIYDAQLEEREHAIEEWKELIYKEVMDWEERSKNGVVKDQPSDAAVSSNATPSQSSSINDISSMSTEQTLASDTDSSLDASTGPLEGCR
T13 sequence (P00519 whole entry, species assumed): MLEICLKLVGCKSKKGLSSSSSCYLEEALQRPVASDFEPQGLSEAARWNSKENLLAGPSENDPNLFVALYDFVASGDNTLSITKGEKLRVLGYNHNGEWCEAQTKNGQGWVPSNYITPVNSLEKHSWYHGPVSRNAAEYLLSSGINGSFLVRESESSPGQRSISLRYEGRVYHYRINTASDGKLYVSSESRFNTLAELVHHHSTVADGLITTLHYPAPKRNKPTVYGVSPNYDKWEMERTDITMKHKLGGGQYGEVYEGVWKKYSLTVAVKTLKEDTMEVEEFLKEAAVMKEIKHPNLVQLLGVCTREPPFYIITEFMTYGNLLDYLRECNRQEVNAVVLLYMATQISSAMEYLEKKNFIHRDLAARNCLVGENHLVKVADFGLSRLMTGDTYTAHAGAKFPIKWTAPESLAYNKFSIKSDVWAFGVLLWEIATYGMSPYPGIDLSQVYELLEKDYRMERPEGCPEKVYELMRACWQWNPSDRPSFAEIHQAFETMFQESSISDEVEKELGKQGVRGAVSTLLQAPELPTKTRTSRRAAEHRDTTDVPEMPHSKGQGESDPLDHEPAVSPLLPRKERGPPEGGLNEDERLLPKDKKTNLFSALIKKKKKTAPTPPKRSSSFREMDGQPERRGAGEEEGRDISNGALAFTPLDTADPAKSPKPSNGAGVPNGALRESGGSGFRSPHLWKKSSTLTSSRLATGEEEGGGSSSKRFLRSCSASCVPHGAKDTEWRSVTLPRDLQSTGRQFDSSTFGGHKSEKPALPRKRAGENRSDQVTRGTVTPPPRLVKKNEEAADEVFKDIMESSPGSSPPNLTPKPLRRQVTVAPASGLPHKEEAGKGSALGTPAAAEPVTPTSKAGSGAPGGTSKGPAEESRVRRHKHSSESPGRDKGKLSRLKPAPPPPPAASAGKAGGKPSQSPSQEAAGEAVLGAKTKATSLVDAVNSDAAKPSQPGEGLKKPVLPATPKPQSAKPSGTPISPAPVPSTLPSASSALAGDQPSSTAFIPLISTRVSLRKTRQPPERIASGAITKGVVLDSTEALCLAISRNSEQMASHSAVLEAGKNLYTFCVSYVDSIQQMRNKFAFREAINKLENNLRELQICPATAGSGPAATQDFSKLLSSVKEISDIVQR

Usually inhibition stands for the percentage by which the read-out fell short of the control. On to `Cc1ccc(NC(=O)c2cccc(C(F)(F)F)c2)cc1NC(=O)N(CCCN1CCCC1=O)c1cc(N)ncn1` [Example 215, N-(3-{3-(6-Amino-pyrimidin-4-yl)-3-[3-(2-oxo-pyrrolidin-1-yl)-propyl]-ureido}-4-methyl-phenyl)-3-trifluoromethyl-benzamide], for which the inhibition at 10 µM came to 97% in assay [1]; 93% in assay [2]; 88% in assay [3]; 95% in assay [4]; 99% in assay [5]; 99% in assay [6]. In addition, the inhibition at 10 µM in assay [7] is 100%; in assay [8] it was 99%; in [9], 99%; in assay [10], 100%; in [11], 100%; in assay [12] it was 81%. Besides, the inhibition at 10 µM in assay [13] is 99%. Moreover, the GI50 in assay [14] stood at 15 nM.
